Results taken from patent US20070145619A1, “Processes for producing microencapsulated delivery vehicles” (Kimberly-Clark Worldwide, Inc., priority 2005, published 2007).
Where two headings read alike, the source gives them in different places.

Tests used:
[1] = Heat generation after soaking in de-ionized water; assay type: physicochemical; conditions: 0.73 grams added to 7.0 grams de-ionized water, no protective layer; FIG. 6
Method: Four samples of the calcium chloride particles including a moisture protective layer were then analyzed for their ability to generate heat after exposure to water. A control sample (calcium chloride) was also tested for heat generating capabilities and compared to the four samples of calcium chloride having a moisture protective layer.
To analyze the samples for heat generation, 0.80 grams of each sample of calcium chloride including a moisture protective layer was added to four separate vials each containing 7.0 grams of de-ionized water and 0.73 grams of the control sample was added to a fifth vial containing 7.0 grams of de-ionized water. Using a J type thermocouple (commercially available from Omega Engineering, Inc., Stamford, Conn.) and a data logger, the temperature of the samples was measured over a period of 180 seconds. The four vials containing the samples of microencapsulated heat delivery vehicle including a moisture protective layer were allowed to remain in the de-ionized water for 0.5 hours, 1.0 hour, 1.5 hours, and 2.0 hours, respectively, at which time the samples were activated by crushing the samples by hand using a metal rod. The temperature of the water in the four vials was measured for a period of 180 seconds after crushing the samples.

[2] = test system: Staphylococcus aureus; test: Biocidal efficacy of magnesium chloride in combination with PHMB, total plate count; assay type: cell-based; conditions: 15-minute contact time
Method: A 1.5-milliliter tube was prepared using magnesium chloride in water.
Two control samples were also prepared. One control sample was filled with 0.850 milliliters magnesium chloride. A second control sample was prepared by introducing 0.850 milliliters sterile water.
The tubes were then vortexed until an increase in temperature was observed.
0.05 milliliters of 1×10^7 CFU/milliliter culture of Staphylococcus aureus was added to each tube. After a 15-minute contact time, 0.1 milliliters of each tube was transferred into 0.9 milliliters letheen broth. To the broth, 10 milligrams/milliliter sodium thiosulfate was also added. The tubes were again vortexed. After vortexing, 0.1 milliliters of each tube was plated on Tryptic soy agar plates. The plates were inverted and incubated at 37° C. for 24 hours. An inoculum control plate was also plated to determine the concentration of the inoculum
After 24 hours, the plates were evaluated using a total plate count to determine the biocidal efficacy of each sample.

[3] = particle size less than 250 micrometers, compared with three other size ranges; 35 wt % in mineral oil added to 7.0 grams de-ionized water; FIG. 4
Method: In this example, samples incorporating various size ranges of anhydrous magnesium chloride suspended in mineral oil at 35 wt % were evaluated for their ability to generate heat upon introduction into water.
The four size ranges of anhydrous magnesium chloride evaluated were: (1) 1000-1500 microns; (2) 600-1000 microns; (3) 250-600 microns; and (4) less than 250 microns. To produce the samples of anhydrous magnesium chloride in mineral oil, the various size ranges of anhydrous magnesium chloride powder (Magnesium Interface Inc. (Vancouver, B.C., Canada) were suspended at 35 wt % in mineral oil (available as Drakeol 7 LT NF from Penreco, Dickinson, Tex.). To produce the samples having anhydrous magnesium chloride with size ranges of 1000-1500 microns, 600-1000 microns, and 250-600 microns, the as received anhydrous magnesium chloride powder was hand screened into the size ranges desired and the powders collected. These powders were suspended at 35 wt % in mineral oil using a cowles mixing blade. […]
All four samples were then added to 7.0 grams de-ionized water and the resulting temperature rise was measured using a J type Thermocouple (available from Omega Engineering, Inc., Stamford, Conn.).

[4] = particle size 149-355 micrometers, compared with four other size ranges; 35 wt % in mineral oil added to 7.0 grams de-ionized water; FIG. 3
Method: In this example, samples incorporating various size ranges of anhydrous calcium chloride suspended in mineral oil at 35 wt % were evaluated for their ability to generate heat upon introduction into water.
The five size ranges of anhydrous calcium chloride evaluated were: (1) less than 149 microns; (2) 149-355 microns; (3) 710-1190 microns; (4) 1190-2000 microns; and (5) 2000-4000 microns. The samples of anhydrous calcium chloride (Dow Chemical, Midland, Mich.) were dispersed in mineral oil (available as Drakeol 7 LT NF from Penreco, Dickinson, Tex.). The as received anhydrous calcium chloride were screened dry using a Gilson Sonic Sieve (Gilson Company, Inc. Columbus, Ohio) to create two sizes, a 1190-2000 micron size and a 2000-4000 micron size. These powders were then suspended at 35 wt % in mineral oil to form a slurry using a cowles mixing blade. To achieve the smaller size distributions, the anhydrous calcium chloride powder required further processing. […]
All five samples were then individually added to 7.0 grams de-ionized water and the resulting temperature rise was measured using a Barnant Scanning Thermocouple (available from Therm-X of California, Hayward, Calif.).

[5] = test system: Methicillin-resistant Staphylococcus aureus; conditions: for LOG10 Reduction: 0.005% PHMB vs no PHMB; for LOG10 Reduction / Total CFU Recovered MRSA: 10-minute contact time; for Total CFU Recovered MRSA: 0.005% PHMB, 5% bovine serum albumin soil, n = 2
Method: This Example utilized 1.5-milliliter tubes containing a 1-milliliter blend of phosphate-buffered saline (pH 7.2) and 5% (w/v) bovine serum albumin soil. The tubes were placed in electric heat blocks set for 22° C., 30° C., 40° C. and 50° C., respectively. The tubes remained in the electric heat blocks for approximately 10 minutes.
After 10 minutes, 0.005% (by weight) active polyhexamehtylene biguanide (PHMB) (commercially available as Cosmocil® CQ from Arch Biocides, Inc., United Kingdom) was added to two tubes at each temperature level. Duplicate tubes without PHMB at each temperature were also made.
The tubes were then vortexed and Methicillin-resistant Staphylococcus aureus (approximately 1×10^5 colony forming units (CFU)) was then added to each tube. All of the tubes were then placed back into the heat blocks at their respective temperatures.
Following a 10-minute contact time, 0.1 milliliters of each sample was transferred to 0.9 milliliters letheen broth to neutralize the PHMB activity. The letheen samples were then plated in duplicate on Tryptic Soy agar plates using a WASP2 spiral plater (commercially available from Don Whitley Scientific, Ltd., Yorkshire, United Kingdom). The plates were inverted and incubated at 37±2° C. for 48 hours.
After 48 hours, the plates were evaluated using a total plate count to determine the biocidal efficacy of each sample.

[Ca+2].[Cl-].[Cl-] [Example 11 control sample, calcium chloride]
heat production in water [1]: produced heat immediately upon being introduced into water but only for a short period of time

[Cl-].[Cl-].[Mg+2] [Magnesium Chloride, magnesium chloride]
LOG10 recovered ([2]; PHMB 0%, magnesium chloride 50%): 1.9 LOG10 | rate of heat generation [3]: highest rate

[Ca+2].[Cl-].[Cl-] [anhydrous calcium chloride, calcium chloride]
rate of heat generation [4]: highest rate

polyhexamethylene biguanide [PHMB]
LOG10 recovered ([2]; PHMB 0.00025%, magnesium chloride 0%): 4.8 LOG10 | difference in efficacy between 22° C. and 50° C. ([5]; 0.005% (by weight) active PHMB): greater than 1.4 LOG10 | LOG10 Reduction ([5]; 22° C.): 2.1 LOG10 | Total CFU Recovered MRSA ([5]; 22° C.): 3.5 CFU | LOG10 Reduction ([5]; 30° C.): 2.8 LOG10 | Total CFU Recovered MRSA ([5]; 30° C.): 2.9 CFU | LOG10 Reduction ([5]; 40° C.): 3.5 LOG10 | Total CFU Recovered MRSA ([5]; 40° C.): 2.1 CFU | LOG10 Reduction ([5]; 50° C.): >3.5 LOG10 | Total CFU Recovered MRSA ([5]; 50° C.): <2 CFU
